Data on one compound can be found in publication PMC11428815, “Characterization of Novel SARM1 Inhibitors for the Treatment of Chemotherapy-Induced Peripheral Neuropathy” (Biomedicines, 2024).

This assay relates to T1, SARM1 TIR domain (DmrB–TIR).
T1 construct: the SARM1 TIR domain was constructed into an Fkbp variant (DmrB); expressed in transfected cells; host or cells: 293T cells
As to the kind of experiment: DmrB–TIR dimerization (AP20187)-induced cell death in 293T cells. Particulars: 24 h after AP20187 addition. Format: cell-based. From the text: To verify the inhibitory mechanism of SARM1 owing to the TIR domain, the SARM1 TIR domain was constructed into an Fkbp variant (DmrB) at its N terminus, which undergoes homodimerization in the presence of AP20187 (a rapamycin analog) (Figure 2A).
Figure 2 Design and characterization of the toxic effects of the SARM1 TIR domain in 293T cells using different compounds. (A) Scheme for TIR dimerization to verify the TIR domain using an Frb–Fkbp moiety fusion. (B) Compounds used and NR display prevention of DmrB–TIR-dependent death 24 h after AP20187 addition.

On to `NC(=O)c1ccc[n+]([C@@H]2O[C@H](CO)[C@@H](O)[C@H]2O)c1` [NR], for which the “prevention of DmrB–TIR-dependent cell death (cell viability)” value was “cell death caused by TIR dimerization was alleviated”.
